The source of these data is US11339171B2, “MDM2 inhibitors” (Gan & Lee Pharmaceuticals, priority 2017, dated 2022).

Assay [1] concerns the target T1, MDM2 (Homo sapiens, UniProt Q00987).
T1 construct: made in house
The experiment in a line: Inhibition test of MDM2-P53 (GST-MDM2, Biotin-P53, Anti-GST-Tb, SA-XL665). As to conditions: for inhibitory effect on MDM2 compared with positive control compound HDM201: labels are Example numbers, the compounds with S-configuration are meant. The class given is binding. The method, boiled down: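 Compounds, serially diluted 5-fold (twelve concentrations), were shaken for 90 min at 25° C with a mix of GST-MDM2 (4 nM final), Biotin-P53, anti-GST-Tb and SA-XL665. Buffer: 1×PBS, 0.1% BSA, 5 mM DTT, 1 mM AEBSF; signal read on a microplate reader.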

Assay [2] concerns human osteosarcoma cell line SJSA-1. Put plainly: Inhibition of proliferation of human osteosarcoma cell line SJSA-1 (DAPI staining, In Cell Analyzer). The note with it: for inhibitory effect on human osteosarcoma cell line SJSA-1 compared with positive control compound HDM201: labels are Example numbers, the compounds with S-configuration are meant; for IC50: Homo sapiens, SJSA-1, 72 h, read-out: IC50 (nM), inhibitory activity on proliferation of human osteosarcoma cell line SJSA-1, SJSA-1, incubated 72 h.

T1 sequence (Q00987 whole entry): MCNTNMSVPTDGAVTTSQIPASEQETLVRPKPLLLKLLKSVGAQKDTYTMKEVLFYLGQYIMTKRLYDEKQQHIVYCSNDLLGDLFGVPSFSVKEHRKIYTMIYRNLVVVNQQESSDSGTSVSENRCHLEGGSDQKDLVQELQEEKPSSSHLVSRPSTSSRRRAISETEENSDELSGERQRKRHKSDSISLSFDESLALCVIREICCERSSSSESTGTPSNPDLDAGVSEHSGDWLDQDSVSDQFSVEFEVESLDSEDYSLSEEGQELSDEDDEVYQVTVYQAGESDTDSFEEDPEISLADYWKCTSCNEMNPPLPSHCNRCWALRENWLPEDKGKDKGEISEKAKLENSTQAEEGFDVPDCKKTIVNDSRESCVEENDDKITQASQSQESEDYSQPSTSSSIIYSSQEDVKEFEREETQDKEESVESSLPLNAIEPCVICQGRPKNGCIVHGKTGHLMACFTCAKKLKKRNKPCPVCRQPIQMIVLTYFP

Turning to `COc1cc(N(C)C)ncc1-c1nc2c(n1C(C)C)C1(C(=O)Nc3cc(Cl)ccc31)N(c1cc(Cl)cnc1C)C2=O` (stereo not shown) [Example 155, 6-chloro-5′-(5-chloro-2-methylpyridin-3-yl)-2′-(6-(dimethylamino)-4-methoxypyridin-3-yl)-3′-isopropyl-3′H-spiro[dihydroindole-3,4′-pyrrolo[3,4-d]imidazole]-2,6′(5′H)-dione], in assay [1], the “inhibitory effect on MDM2 compared with positive control compound HDM201” value was “better”. Further, in assay [2], the “inhibitory effect on human osteosarcoma cell line SJSA-1 compared with positive control compound HDM201” value was “better”.

`COc1nc(C2CC2)ncc1-c1nc2c(n1C(C)C)[C@@]1(C(=O)Nc3cc(Cl)ccc31)N(c1cc(F)cc(Cl)c1)C2=O` [Example S-174, (S)-6-chloro-5′-(3-chloro-5-fluorophenyl)-2′-(2-cyclopropyl-4-methoxypyrimidin-5-yl)-3′-isopropyl-3′H-spiro[dihydroindole-3,4′-pyrrolo[3,4-d]imidazole]-2,6′(5′H)-dione]: the IC50 is 4.12 nM in assay [1] and 93.5 nM in assay [2].

On to `COc1cc(C2CC2)ncc1-c1nc2c(n1C(C)C)C1(C(=O)Nc3cc(Cl)ccc31)N(c1cc(Cl)cnc1C)C2=O` (stereo not shown) [Example 143, 6-chloro-5′-(5-chloro-2-methylpyridin-3-yl)-2′-(6-cyclopropyl-4-methoxypyridin-3-yl)-3′-isopropyl-3′H-spiro[dihydroindole-3,4′-pyrrolo[3,4-d]imidazole]-2,6′(5′H)-dione], for which, in assay [1], the “inhibitory effect on MDM2 compared with positive control compound HDM201” value is “better”. Moreover, the “inhibitory effect on human osteosarcoma cell line SJSA-1 compared with positive control compound HDM201” value in assay [2] is “better”.

Turning to `COc1ccc(-c2nc3c(n2C(C)C)[C@@]2(C(=O)Nc4cc(Cl)ccc42)N(c2cc(Cl)ccc2C)C3=O)cc1` [Example S-64, (S)-6-chloro-5′-(5-chloro-2-methylphenyl)-3′-isopropyl-2′-(4-methoxyphenyl)-3′H-spiro[dihydroindole-3,4′-pyrrolo[3,4-d]imidazole]-2,6′(5′H)-dione], the values for the IC50 in assay [1] and in assay [2] were 11.8 nM and 726 nM, respectively.

With `COc1cc(C2CC2)ncc1-c1nc2c(n1C(C)C)[C@@]1(C(=O)Nc3cc(Cl)ccc31)N(c1cccc(Cl)c1)C2=O` [Example S-106, (S)-6-chloro-5′-(3-chlorophenyl)-2′-(6-cyclopropyl-4-methoxypyridin-3-yl)-3′-isopropyl-3′H-spiro[dihydroindole-3,4′-pyrrolo[3,4-d]imidazole]-2,6′(5′H)-dione], the IC50 in assay [1] stood at 2.59 nM; in assay [2], 33.5 nM.

`CCc1ccc(-c2nc3c(n2C(C)C)[C@]2(C(=O)Nc4cc(Cl)ccc42)N(c2cc(Cl)ccc2C)C3=O)c(OC)c1` [Example R-33, (R)-6-chloro-5′-(5-chloro-2-methylphenyl)-2′-(4-ethyl-2-methoxyphenyl)-3′-isopropyl-3′H-spiro[dihydroindole-3,4′-pyrrolo[3,4-d]imidazole]-2,6′(5′H)-dione]: the IC50 in assay [1] was 592 nM; in assay [2], 4890 nM.

`COc1cc(N(C)C)ccc1-c1nc2c(n1C(C)C)[C@@]1(C(=O)Nc3cc(Cl)ccc31)N(c1cc(Cl)ccc1F)C2=O` [Example S-81, (S)-6-chloro-5′-(5-chloro-2-fluorophenyl)-2′-(4-(dimethylamino)-2-methoxyphenyl)-3′-isopropyl-3′H-spiro[dihydroindole-3,4′-pyrrolo[3,4-d]imidazole]-2,6′(5′H)-dione]: the IC50 in assay [1] is 1.23 nM; in assay [2], 82.8 nM.

For the molecule `CCc1ccc(Cl)cc1N1C(=O)c2nc(-c3cnc(OC)nc3OC)n(C(C)C)c2[C@]12C(=O)Nc1cc(Cl)ccc12` [Example R-15, (R)-6-chloro-5′-(5-chloro-2-ethylphenyl)-2′-(2,4-dimethoxypyrimidin-5-yl)-3′-isopropyl-3′H-spiro[dihydroindole-3,4′-pyrrolo[3,4-d]imidazole]-2,6′(5′H)-dione], the results for the IC50 in assay [1] and in assay [2] were 107 nM and 840 nM, respectively.

Turning to `CCn1c(-c2cnc(OC)nc2OC)nc2c1[C@]1(C(=O)Nc3cc(Cl)ccc31)N(c1cc(Cl)ccc1C)C2=O` [Example R-26, (R)-6-chloro-5′-(5-chloro-2-methylphenyl)-2′-(2,4-dimethoxypyrimidin-5-yl)-3′-ethyl-3′H-spiro[dihydroindole-3,4′-pyrrolo[3,4-d]imidazole]-2,6′(5′H)-dione], the IC50 was determined as 236 nM in assay [1] and 3650 nM in assay [2].

`COc1cc(C)ccc1-c1nc2c(n1C(C)C)[C@]1(C(=O)Nc3cc(Cl)ccc31)N(c1cccc(Cl)c1)C2=O` [Example R-109, (R)-6-chloro-5′-(3-chlorophenyl)-3′-isopropyl-2′-(2-methoxy-4-methylphenyl)-3′H-spiro[dihydroindole-3,4′-pyrrolo[3,4-d]imidazole]-2,6′(5′H)-dione]: the IC50 in assay [1] is 381 nM; in assay [2] it was 8200 nM.

As to `COc1ncc(-c2nc3c(n2C(C)C)C2(C(=O)Nc4cc(Cl)ccc42)N(c2cc(Cl)ccc2C)C3=O)c(OC)n1` (stereo not shown) [Example 2, 6-chloro-5′-(5-chloro-2-methylphenyl)-2′-(2,4-dimethoxypyrimidin-5-yl)-3′-isopropyl-3′H-spiro[dihydroindole-3,4′-pyrrolo[3,4-d]imidazole]-2,6′(5′H)-dione], the “inhibitory effect on MDM2 compared with positive control compound HDM201” value in assay [1] is reported as “better”. Also, the “inhibitory effect on human osteosarcoma cell line SJSA-1 compared with positive control compound HDM201” value in assay [2] is reported as “better”.

Turning to `COc1ncc(-c2nc3c(n2C(C)C)[C@@]2(C(=O)Nc4cc(Cl)ccc42)N(c2ccc(OC(F)(F)F)c(Cl)c2)C3=O)c(OC)n1` [Example S-161, (S)-6-chloro-5′-(3-chloro-4-(trifluoromethoxy)phenyl)-2′-(2,4-dimethoxypyrimidin-5-yl)-3′-isopropyl-3′H-spiro[dihydroindole-3,4′-pyrrolo[3,4-d]imidazole]-2,6′(5′H)-dione], the IC50 in assay [1] was 8.09 nM; in assay [2] it was 557 nM.

In the case of `COc1cc(C)ccc1-c1nc2c(n1C(C)C)[C@@]1(C(=O)Nc3cc(Cl)ccc31)N(c1cccc(Cl)c1)C2=O` [Example S-109, (S)-6-chloro-5′-(3-chlorophenyl)-3′-isopropyl-2′-(2-methoxy-4-methylphenyl)-3′H-spiro[dihydroindole-3,4′-pyrrolo[3,4-d]imidazole]-2,6′(5′H)-dione], the values for the IC50 in assay [1] and in assay [2] were 2.34 nM and 54.6 nM, respectively.

For `COc1cc(C(F)(F)F)ccc1-c1nc2c(n1C(C)C)[C@]1(C(=O)Nc3cc(Cl)ccc31)N(c1cc(Cl)ccc1C)C2=O` [Example R-85, (R)-6-chloro-5′-(5-chloro-2-methylphenyl)-3′-isopropyl-2′-(2-methoxy-4-(trifluoromethyl)phenyl)-3′H-spiro[dihydroindole-3,4′-pyrrolo[3,4-d]imidazole]-2,6′(5′H)-dione], the IC50 was 494 nM in assay [1] and 2190 nM in assay [2].

In the case of `COc1cc(C(C)(C)C)ccc1-c1nc2c(n1C(C)C)[C@@]1(C(=O)Nc3cc(Cl)ccc31)N(c1cc(Cl)ccc1C)C2=O` [Example S-101, (S)-2′-(4-(tert-butyl)-2-methoxyphenyl)-6-chloro-5′-(5-chloro-2-methylphenyl)-3′-isopropyl-3′H-spiro[dihydroindole-3,4′-pyrrolo[3,4-d]imidazole]-2,6′(5′H)-dione], the IC50 was 9.86 nM in assay [1] and 48.5 nM in assay [2].

As for `COc1cc(C#N)ccc1-c1nc2c(n1C(C)C)[C@@]1(C(=O)Nc3cc(Cl)ccc31)N(c1cc(Cl)ccc1C)C2=O` [Example S-12, (S)-4-(6-chloro-5′-(5-chloro-2-methylphenyl)-3′-isopropyl-2,6′-dioxo-5′,6′-dihydro-3′H-spiro[dihydroindole-3,4′-pyrrolo[3,4-d]imidazole]-2′-yl)-3-methoxybenzonitrile], the figures for the IC50 in assay [1] and in assay [2] were 3.55 nM and 5.27 nM, respectively.

As for `CCc1ccc(Cl)cc1N1C(=O)c2nc(-c3cnc(OC)nc3OC)n(C(C)C)c2C12C(=O)Nc1cc(Cl)ccc12` (stereo not shown) [Example 15, 6-chloro-5′-(5-chloro-2-ethylphenyl)-2′-(2,4-dimethoxypyrimidin-5-yl)-3′-isopropyl-3′H-spiro[dihydroindole-3,4′-pyrrolo[3,4-d]imidazole]-2,6′(5′H)-dione], the “inhibitory effect on MDM2 compared with positive control compound HDM201” value in assay [1] is listed as “better”. Moreover, the “inhibitory effect on human osteosarcoma cell line SJSA-1 compared with positive control compound HDM201” value in assay [2] is listed as “better”.

For `COc1ccc(-c2nc3c(n2C(C)C)[C@]2(C(=O)Nc4cc(Cl)ccc42)N(c2cc(Cl)ccc2C)C3=O)c(OC)n1` [Example R-8, (R)-6-chloro-5′-(5-chloro-2-methylphenyl)-2′-(2,6-dimethoxypyridin-3-yl)-3′-isopropyl-3′H-spiro[dihydroindole-3,4′-pyrrolo[3,4-d]imidazole]-2,6′(5′H)-dione], the IC50 in assay [1] came out at 329 nM; in assay [2], 2290 nM.

For the molecule `CCn1c(-c2cnc(OC)nc2OC)nc2c1[C@@]1(C(=O)Nc3cc(Cl)ccc31)N(c1cc(Cl)ccc1C)C2=O` [Example S-26, (S)-6-chloro-5′-(5-chloro-2-methylphenyl)-2′-(2,4-dimethoxypyrimidin-5-yl)-3′-ethyl-3′H-spiro[dihydroindole-3,4′-pyrrolo[3,4-d]imidazole]-2,6′(5′H)-dione], the IC50 came out at 2.37 nM in assay [1] and 22.2 nM in assay [2].

On to `COc1cc(N(C)C)ncc1-c1nc2c(n1C(C)C)C1(C(=O)Nc3cc(Cl)ccc31)N(c1cccc(Cl)c1)C2=O` (stereo not shown) [Example 113, 6-chloro-5′-(3-chlorophenyl)-2′-(6-(dimethylamino)-4-methoxypyridin-3-yl)-3′-isopropyl-3′H-spiro[dihydroindole-3,4′-pyrrolo[3,4-d]imidazole]-2,6′(5′H)-dione], for which the “inhibitory effect on MDM2 compared with positive control compound HDM201” value in assay [1] is listed as “better”. In addition, in assay [2], the “inhibitory effect on human osteosarcoma cell line SJSA-1 compared with positive control compound HDM201” value was “better”.
